The values that follow are results of earlier work, collected in EP4092126A1, “A METHOD OF ENZYMATIC REDUCTION OF THE OXIDIZED NICOTINAMIDE ADENINE DINUCLEOTIDE AND CARBOXYLIC ACIDS” (priority 2021, dated 2022).

For orientation: Km means the substrate concentration at which the rate is half of its maximum. By pKi is commonly meant the negative decadic logarithm of the Ki, by convention in mol/L.

Data set [1] relates to tungsten aldehyde oxidoreductase (AOR) from A. aromaticum. The note with it: 1 mM benzaldehyde, re-oxidized with NAD+, pH 8.0, 28°C, anaerobic conditions.
Data set [2] has as its target T1, AOR (Aromatoleum aromaticum, UniProt Q5P142+Q5P143).
T1 sequence (Q5P143 1-616): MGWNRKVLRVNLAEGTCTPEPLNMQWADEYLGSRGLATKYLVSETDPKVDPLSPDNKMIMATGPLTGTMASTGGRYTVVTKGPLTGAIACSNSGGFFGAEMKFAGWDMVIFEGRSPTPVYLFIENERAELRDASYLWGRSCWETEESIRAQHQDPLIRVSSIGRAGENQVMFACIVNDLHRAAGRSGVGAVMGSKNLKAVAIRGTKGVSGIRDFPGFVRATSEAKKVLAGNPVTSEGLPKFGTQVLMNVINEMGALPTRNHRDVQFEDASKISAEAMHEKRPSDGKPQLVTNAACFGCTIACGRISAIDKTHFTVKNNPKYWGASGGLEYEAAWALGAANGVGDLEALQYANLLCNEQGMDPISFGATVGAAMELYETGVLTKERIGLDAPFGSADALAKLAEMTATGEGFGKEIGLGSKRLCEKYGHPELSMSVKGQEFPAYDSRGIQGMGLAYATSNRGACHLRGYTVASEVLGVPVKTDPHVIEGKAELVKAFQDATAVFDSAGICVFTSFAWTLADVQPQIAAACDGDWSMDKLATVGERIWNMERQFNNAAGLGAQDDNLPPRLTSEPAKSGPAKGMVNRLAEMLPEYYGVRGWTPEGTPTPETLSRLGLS
T1 sequence (Q5P142 1-424): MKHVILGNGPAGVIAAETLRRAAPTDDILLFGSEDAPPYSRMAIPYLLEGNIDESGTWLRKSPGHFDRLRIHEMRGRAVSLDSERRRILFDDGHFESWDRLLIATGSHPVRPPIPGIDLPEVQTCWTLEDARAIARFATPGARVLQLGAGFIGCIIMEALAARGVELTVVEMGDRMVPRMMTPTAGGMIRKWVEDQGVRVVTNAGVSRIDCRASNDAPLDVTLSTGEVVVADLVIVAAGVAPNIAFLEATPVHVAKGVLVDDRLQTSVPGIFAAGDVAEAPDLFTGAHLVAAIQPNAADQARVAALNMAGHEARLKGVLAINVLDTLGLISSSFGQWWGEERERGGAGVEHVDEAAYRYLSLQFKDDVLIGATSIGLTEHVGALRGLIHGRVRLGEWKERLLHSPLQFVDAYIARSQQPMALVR
T1 sequence (Q5P144 1-158 partner): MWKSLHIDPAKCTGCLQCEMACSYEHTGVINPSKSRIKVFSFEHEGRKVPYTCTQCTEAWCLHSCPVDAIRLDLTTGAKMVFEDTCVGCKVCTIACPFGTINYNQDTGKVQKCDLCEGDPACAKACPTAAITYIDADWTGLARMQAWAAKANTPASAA
The note with it: 1 mM benzaldehyde, pH 8.0, 28°C, anaerobic; read-out: Km versus NAD^+.

For data set [3], the target named is [NiFe] dehydrogenase from Ralstonia eutropha (Cupriavidus necator, UniProt P22317+P22320).
Data set [4] addresses T2, phosphine dehydrogenase (PTDH) (Stutzerimonas stutzeri, UniProt O69054).
T2 sequence (O69054 1-336): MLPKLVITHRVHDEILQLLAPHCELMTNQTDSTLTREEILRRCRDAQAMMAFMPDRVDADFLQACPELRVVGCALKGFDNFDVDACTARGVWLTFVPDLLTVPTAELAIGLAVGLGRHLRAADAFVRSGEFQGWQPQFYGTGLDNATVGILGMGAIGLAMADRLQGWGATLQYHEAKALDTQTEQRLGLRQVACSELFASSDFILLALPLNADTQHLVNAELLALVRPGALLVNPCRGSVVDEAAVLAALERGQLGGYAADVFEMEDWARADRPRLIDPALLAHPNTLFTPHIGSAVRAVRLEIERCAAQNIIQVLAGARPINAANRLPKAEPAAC
The note with it: read-out: Km (NAD^+).

In data set [5] the target is AOR enzyme from Thermococcus strain ES-1. As to conditions: reducing acetic acid to acetaldehyde with reduced methyl viologen.
The test system of data set [6] is [NiFe] dehydrogenase from Ralstonia eutropha. As to conditions: same Km expressed as per cent H2.

pKi: −log10 of the molar value. Read-outs that look alike come from different tables or passages of the source.

[NiFe] dehydrogenase from Ralstonia eutropha (Cupriavidus necator, UniProt P22317+P22320), sequence (P22318 whole entry): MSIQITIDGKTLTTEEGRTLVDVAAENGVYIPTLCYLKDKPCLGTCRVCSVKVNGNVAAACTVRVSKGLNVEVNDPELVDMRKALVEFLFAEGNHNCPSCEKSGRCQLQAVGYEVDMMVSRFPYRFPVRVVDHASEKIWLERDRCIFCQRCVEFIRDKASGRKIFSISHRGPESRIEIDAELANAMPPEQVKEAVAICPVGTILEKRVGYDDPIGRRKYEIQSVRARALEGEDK
[NiFe] dehydrogenase from Ralstonia eutropha (Cupriavidus necator, UniProt P22317+P22320), sequence (P22320 1-464): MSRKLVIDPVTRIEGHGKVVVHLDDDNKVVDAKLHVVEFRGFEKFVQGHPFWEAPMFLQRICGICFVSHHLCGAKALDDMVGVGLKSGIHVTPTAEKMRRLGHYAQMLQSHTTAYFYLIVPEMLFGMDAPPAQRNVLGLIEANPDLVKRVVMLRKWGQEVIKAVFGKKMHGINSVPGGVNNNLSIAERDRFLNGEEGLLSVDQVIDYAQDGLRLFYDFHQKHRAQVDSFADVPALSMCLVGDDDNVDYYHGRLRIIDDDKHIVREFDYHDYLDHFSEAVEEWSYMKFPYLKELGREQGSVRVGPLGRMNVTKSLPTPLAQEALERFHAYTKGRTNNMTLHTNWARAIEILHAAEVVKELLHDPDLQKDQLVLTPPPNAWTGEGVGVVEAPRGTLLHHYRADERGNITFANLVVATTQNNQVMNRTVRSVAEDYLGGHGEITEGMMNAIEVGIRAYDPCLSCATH
[NiFe] dehydrogenase from Ralstonia eutropha (Cupriavidus necator, UniProt P22317+P22320), sequence (P22319 whole entry, further chain): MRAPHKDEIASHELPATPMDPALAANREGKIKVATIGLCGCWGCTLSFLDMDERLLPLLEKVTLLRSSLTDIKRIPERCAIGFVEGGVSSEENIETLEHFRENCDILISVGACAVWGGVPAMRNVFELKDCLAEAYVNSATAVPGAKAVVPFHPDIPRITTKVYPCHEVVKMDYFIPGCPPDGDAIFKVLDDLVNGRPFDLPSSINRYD
[NiFe] dehydrogenase from Ralstonia eutropha (Cupriavidus necator, UniProt P22317+P22320), sequence (P22317 whole entry): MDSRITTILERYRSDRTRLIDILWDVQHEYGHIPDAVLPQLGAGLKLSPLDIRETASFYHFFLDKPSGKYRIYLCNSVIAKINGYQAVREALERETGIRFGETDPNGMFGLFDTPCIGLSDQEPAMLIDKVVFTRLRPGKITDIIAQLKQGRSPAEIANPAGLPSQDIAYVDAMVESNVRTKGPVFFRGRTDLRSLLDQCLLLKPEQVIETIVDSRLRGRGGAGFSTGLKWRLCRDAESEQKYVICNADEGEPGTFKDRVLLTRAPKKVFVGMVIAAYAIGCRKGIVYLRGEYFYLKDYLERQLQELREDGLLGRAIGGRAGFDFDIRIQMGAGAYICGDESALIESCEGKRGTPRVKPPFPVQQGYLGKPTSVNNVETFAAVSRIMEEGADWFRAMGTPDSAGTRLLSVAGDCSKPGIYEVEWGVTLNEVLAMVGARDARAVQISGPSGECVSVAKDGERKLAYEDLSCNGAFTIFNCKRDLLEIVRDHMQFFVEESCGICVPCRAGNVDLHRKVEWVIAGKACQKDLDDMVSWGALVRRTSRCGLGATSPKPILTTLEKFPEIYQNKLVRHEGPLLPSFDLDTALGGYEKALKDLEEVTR

Consider `NC(=O)c1ccc[n+]([C@@H]2O[C@H](COP(=O)([O-])OP(=O)(O)OC[C@H]3O[C@@H](n4cnc5c(N)ncnc54)[C@H](O)[C@@H]3O)[C@@H](O)[C@H]2O)c1` [NAD+, nicotinamide adenine dinucleotide], for which the “maximum observed reaction rate, Vmax” value in data set [1] is 12.5 mM/min/mg.

Consider `NC(=O)c1ccc[n+]([C@@H]2O[C@H](COP(=O)([O-])OP(=O)(O)OC[C@H]3O[C@@H](n4cnc5c(N)ncnc54)[C@H](O)[C@@H]3O)[C@@H](O)[C@H]2O)c1` [NAD^+, nicotinamide adenine dinucleotide], for which the results for the Km in data set [2], in data set [3] (read-out: Km (NAD^+)) and in data set [4] were 63 µM, 560 µM and 53 µM, respectively.

In the case of `CC(=O)O` [acetic acid], the “kinetic rate constant (kcat)” value in data set [5] is 1.6 turnovers of the catalyzed reaction per second.

Regarding `[HH]` [hydrogen], the Michaelis-Menten constant (Km) in data set [3] (1.4-5% H2, read-out: Km (hydrogen)) was 11 to 37 µM. The pKi in data set [3] (hyperbaric conditions, read-out: Ki (inhibition by H2)) was 2.84.

Turning to hydrogen [H2], the “Km (hydrogen), as H2 content” value in data set [6] is on record as 1.4-5 % H2.
